Series [1] relates to Hep 3B human liver cancer cells. Briefly: Cell viability after light-activated tetrazine prodrug therapy. The format is cell-based. The settings on record: for influence on cell viability, agent alone: 1a 8 μM or TCO-Dox 3c 5.5 μM alone; for influence on cell viability, agent alone with irradiation: LED light 2 minutes, 1a 8 μM, TCO-Dox 3c 5.5 μM or side product 4c 5.5 μM alone. On the procedure: FIGS. 5A-5B. Light-activated tetrazine prodrug therapy in Hep 3B cancer cells. FIG. 5A: Application of light-controlled tetrazine ligation to release the chemotherapeutic doxorubicin in the presence of living Hep 3B cancer cells. Dox, doxorubicin. FIG. 5B: Cell viability of Hep 3B cancer cells after treatments with photocaged dihydrotetrazine 1a (8 μM), TCO-Dox 3c (5.5 μM), side product 4c (5.5 μM), and Dox 5a (5.5 μM) with or without irradiation by LED light (405 nm, 18 W) for 2 minutes, followed by incubation at 37° C. for 24 hours. Error bars indicate standard error of mean (SEM), which are measured from 3 replicates. Statistically significant differences in cell viability between no treatment and other means are indicated: **P<0.01. ns, not significant.
Based on the positive dual activation results obtained from the in vitro experiments, we next tested if light-triggered tetrazine ligation enabled prodrug therapy could be carried out in the presence of live cancer cells (FIG. 5B). […] Loss of cell viability was similar to that observed when cells were directly treated with Dox […] (5.5 μM) under the same conditions.
Based on the positive results obtained, we tested whether light-triggered drug delivery could be carried out in the presence of living cancer cells (FIG. 5B). […] However, upon irradiation with LED light (405 nm, 18W) for 2 minutes, followed by incubation for 24 hours, a 75.1±3% reduction of cell viability was observed. The loss of cell viability was similar to that observed when cells were directly treated with Dox 5a (5.5 μM) under the same conditions.

Series [2] can be described thus: Stability in 4-methylpiperidine/DMF solution (Fmoc deprotection conditions). The format is physicochemical. An excerpt:
Although tetrazine ligation is a widely used bioorthogonal tool, tetrazine-containing amino acid has been rarely explored in the solid-phase peptide synthesis (SPPS) due to dramatic degradations of tetrazines under the protection conditions, such as 4-methylpiperidine/DMF solution. Markedly, photocaged dihydrotetrazine 1a proves to be stable in the presence of 4-methylpiperidine/DMF solution, so that we were able to employ photocaged dihydrotetrazine-containing amino acid in SPPS and obtained the desired tetrazine-containing peptide in the late stage. Here we have synthesized unnatural amino acid photocaged dihydrotetrazine-lysine 1b (12 mg, 15 μmol) and obtained a five-amino-acid peptide 1c through practical SPPS in 49% yield (FIG. 3A). After irradiation of dihydrotetrazine-peptide 1c (10 μM) for 2 minutes in PBS at 37° C., tetrazine-peptide 2c could been readily achieved, which contains two common bioorthogonal groups, including an azido group and a tetrazine group.
Considering the stability of photocaged dihydrotetrazines, we asked if such groups could act as photoprotection moieties, masking latent tetrazines through harsh conditions that would normally be degradative. For example, in 4-methylpiperidine/DMF solution, 40% of tetrazine 2a degrades in 30 minutes. […] Therefore, we hypothesized that photocaged dihydrotetrazines would be tolerated during SPPS. […]

A short description of series [3]: Stability of photocaged dihydrotetrazine in aqueous solution / PBS / cell lysate without irradiation. The following applies: absence of irradiation, 37° C. The format is physicochemical. The source says: We initiated our studies by synthesizing photocaged dihydrotetrazines 1. Ideally, photocaged dihydrotetrazine 1 should be stable in aqueous solution and the uncaged dihydrotetrazine should rapidly air oxidize to tetrazine 2. With these criteria in mind, we chose 3-(but-3-yn-1-yl)-6-phenyl-[…]1,2,4,5-tetrazine as a model building block, which we reduced to the corresponding dihydrotetrazine. We decided to include a terminal alkyne so that the photocaged dihydrotetrazine could be conjugated to functional molecules by copper-catalyzed azide-alkyne cycloaddition. For the photocleavable protecting group, we decided to utilize 1-(2-nitrophenyl)ethyl carbamate, due to its sensitivity to visible light, and its previous use in cellular studies. […] In the absence of irradiation, 1a is stable in aqueous solution at 37° C. with open air for over 4 days. Having photocaged dihydrotetrazines 1 in hand, we next characterized product formation after visible light triggered decaging (FIG. 2A). […] The resulting dihydrotetrazine intermediate is spontaneously oxidized by air, generating the desired 3-(but-3-yn-1-yl)-6-phenyl-1,2,4,5-tetrazine 2a.
A photocaged dihydrotetrazine should be stable in aqueous solution and the dihydrotetrazine should rapidly be oxidized to tetrazine by air. With this hypothesis in mind, we synthesized photocaged dihydrotetrazine 1a from 3-(but-3-yn-1-yl)-6-phenyl-1,2,4,5-tetrazine, which could be converted to the corresponding dihydrotetrazine using the reductant thiourea dioxide (FIG. 1B). 1-(2-Nitrophenyl)ethyl carbamate was investigated as the photocleavable functional group, due to its sensitivity to visible blue light (28) and biocompatibility (29). […] We analyzed light-triggered tetrazine formation from photocaged dihydrotetrazine 1a (FIGS. 2A-2B). […] We measured a second-order rate constant of 101±3 M^−1 s^−1 between 2a and a model strained dienophile, trans-4-cycloocten-1-ol (TCO-OH), by monitoring the disappearance of the characteristic tetrazine visible absorption at 521 nm under pseudo first-order conditions (13).

A short description of series [4]: Second-order rate constant of tetrazine ligation with strained dienophile. The settings on record: with TCO-OH; disappearance of tetrazine absorption at 521 nm, pseudo first-order conditions. An excerpt:
A photocaged dihydrotetrazine should be stable in aqueous solution and the dihydrotetrazine should rapidly be oxidized to tetrazine by air. With this hypothesis in mind, we synthesized photocaged dihydrotetrazine 1a from 3-(but-3-yn-1-yl)-6-phenyl-1,2,4,5-tetrazine, which could be converted to the corresponding dihydrotetrazine using the reductant thiourea dioxide (FIG. 1B). 1-(2-Nitrophenyl)ethyl carbamate was investigated as the photocleavable functional group, due to its sensitivity to visible blue light (28) and biocompatibility (29). After reacting the dihydrotetrazine intermediate with the selected photocleavable group, the desired product 1-(2-nitrophenyl)ethyl 6-(but-3-yn-1-yl)-3-phenyl-1,2,4,5-tetrazine-1(4H)-carboxylate photocaged dihydrotetrazine 1a was obtained. Nuclear magnetic resonance (NMR) studies confirmed that the secondary amine adjacent to the alkyl group of dihydrotetrazine 1a is functionalized. We analyzed light-triggered tetrazine formation from photocaged dihydrotetrazine 1a (FIGS. 2A-2B). […] We measured a second-order rate constant of 101±3 M^−1 s^−1 between 2a and a model strained dienophile, trans-4-cycloocten-1-ol (TCO-OH), by monitoring the disappearance of the characteristic tetrazine visible absorption at 521 nm under pseudo first-order conditions (13).

The structures appear in SMILES notation. Entries after “also recorded” stand apart in the source; their conditions may differ.

Results on four molecules are retold here after US20250188065A1, “LIGHT-CONTROLLED BIOORTHOGONAL TETRAZINE LIGATION” (The Regents of the University Of California, priority 2020, published 2025).

With `C#CCCC1=NNC(c2ccccc2)=NN1C(=O)OC(C)c1ccccc1[N+](=O)[O-]` (centres unmarked) [1a, 1-(2-nitrophenyl)ethyl 6-(but-3-yn-1-yl)-3-phenyl-1,2,4,5-tetrazine-1(4H)-carboxylate], in series [1], the “influence on cell viability, agent alone” value was “no influence on cell viability” and the “influence on cell viability, agent alone with irradiation” value is given as “no influence on cell viability”. For the same molecule, the “stability in 4-methylpiperidine/DMF solution” value in series [2] (4-methylpiperidine/DMF solution) is given as “stable; also recorded: no detectable degradation”. Besides, the “stable in aqueous solution (time)” value in series [3] (open air) is “over 4 days”. For the same molecule, in series [3] (PBS or cell lysate), the “decomposition after 4 days of incubation” value is listed as “less than 1%” and the “degradation over 1 day” value is recorded as “not observed”.

`C#CCCc1nnc(-c2ccccc2)nn1` [2a, 3-(but-3-yn-1-yl)-6-phenyl-1,2,4,5-tetrazine] registered a second-order rate constant in series [4] of 101 ± 3 M⁻¹ s⁻¹. In addition, the “degradation in 4-methylpiperidine/DMF solution” value in series [2] (30 minutes) turned out to be 40%.

For `COc1cccc2c1C(=O)c1c(O)c3c(c(O)c1C2=O)C[C@@](O)(C(=O)CO)C[C@@H]3O[C@H]1C[C@H](N)[C@H](O)[C@H](C)O1` [Dox 5a, doxorubicin, reference compound], the “loss of cell viability compared with irradiated 1a + TCO-Dox 3c mixture” value in series [1] (direct treatment with Dox 5.5 μM, same conditions) was “similar”.

For the molecule `COc1cccc2c1C(=O)c1c(O)c3c(c(O)c1C2=O)C[C@@](O)(C(=O)CO)C[C@@H]3O[C@H]1C[C@H](NC(=O)OC2/C=C/CCCCC2)[C@H](O)[C@H](C)O1` (some centres unmarked) [TCO-Dox 3c], in series [1], the “influence on cell viability, agent alone” value is on record as “no influence on cell viability” and the “influence on cell viability, agent alone with irradiation” value was “no influence on cell viability”.
